We go through ten compounds from patent publication EP0626943B1, “BISTRIAZENES AS CHEMOTHERAPEUTIC AGENTS” (THE GOVERNMENT OF THE UNITED STATES OF AMERICA as …, priority 1991, dated 1993).

Where two headings read alike, the source gives them in different places.

In one series the test system is PRCL DU145X. The series can be described thus: Clonogenic assay (two-layer soft agar culture). Type of series: cell-based. The conditions noted are these: Homo sapiens, read-out: Test/Control (%) at Drug Concentration (µg/ml). On the procedure:
(§1) Briefly, the assay system consists of a modified, two-layer soft agar culture system. The bottom layer consists of 1 ml of modified Dulbecco medium supplemented with L-glutamine, containing 10% fetal calf serum and 0.5% agar, in a 35 mm petri-dish. The upper layer contains 2-5 x 10^5 viable human tumor cells suspended in a 1 ml volume, consisting of 0.3% agar, 30% fetal calf serum, and the medium. The drugs to be tested, contained in 1 ml of medium containing 30% fetal calf serum, are included in the upper layer. Control plates are identical, except for the omission of the drugs. The plates are incubated at 37°C in a humidified atmosphere containing 7% carbon dioxide for varying periods (7-21 days). The time in culture is determined by the rate of colony formation in the control plates. At the end of the culture period, the number of colonies in the drug treated cultures is compared to the number of colonies in the control plates, after visualization of the live colonies by staining with tetrazolium chloride.

A further series concerns RXF 1220. The series can be described thus: Clonogenic assay (two-layer soft agar culture). The conditions noted are these: Homo sapiens, read-out: Test/Control (%) at Drug Concentration (µg/ml). The format is cell-based. On the procedure: as §1
The subject of another series is LXFL 529. The series can be described thus: Clonogenic assay (two-layer soft agar culture). The format is cell-based. The conditions noted are these: Homo sapiens. On the procedure: as §1
Series [1] concerns 32P-endlabeled oligonucleotide. As to the kind of experiment: Oligonucleotide crosslinking assay. The format is biochemical. As to conditions: 37°C, 42 hours, pH 7.4. On the procedure:
A solution of 6.2 ng of ^32P-endlabeled oligonucleotide in 0.1 M cacodylic acid buffer (0.1 M NaCl, pH 7.4) was allowed to react with the desired compound dissolved in 1/10 volume DMSO. Final concentrations of the compounds in the oligonucleotide solution were 0.1 mM NMUST, 1.0 mM CCNU, or 10 mM bistriazene. Reactions were incubated at 37°C for 42 hours, and analyzed by denaturing polyacrylamide gel electrophoresis (20% gel) followed by autoradiography. the gels were intentionally overexposed to better visualize bands corresponding to interstrand crosslinks. Large amounts of unreacted oligonucleotides were also visualized under these conditions.

A short description of series [2]: Solubility observed on isolation. Type of series: physicochemical. On the procedure:
A solution of 3.95 g (25 mmoles) of 2-bromopyridine in 20 ml of dry pentane was added dropwise to 10 ml. of 2.5M butylithium in hexane at -78°C. To the resulting yellow slurry was added dropwise with stirring 1.75 g (12.5 mmoles) of 1,4-diazidobutane in 10 ml. of pentane. Stirring was continued for 2 hr. at -78° and then the reaction mixture was allowed to warm to room temperature. The reaction mixture was treated with 60 ml. of ammonium buffer which caused a precipitate to appear after the reaction was cooled to -78°C. The solid was filtered off. […] The yield was 2.3 g., m.p. 133-136. Spectroscopic data were consistent with the structure.
A solution of butyllithium in hexane (5 ml., 2.5M) was dissolved in 10 ml. of tetrahydrofuran and cooled to -78°C. To this was added dropwise with stirring a solution of 1.98 g (12.5 mmoles) of 2-bromopyridine in 10 ml. of tetrahydrofuran. The dark yellow solution of the pyridine anion was mixed with a solution of 0.70 g (6.2 mmoles) of 1,2-diazidoethane in 10 ml. of tetrahydrofuran at -78°C. After 1 hr. of stirring the dark green solution was treated with 10 ml. of ammonium buffer. The color changed to yellow. The organic solvent was removed in vacuo, and the precipitate was isolated by filtration and washed with copious quantities of diethylether. The powdery material was finally dried under high vacuum. The yield was 770 mg. […] The spectra, however, were fully consistent with the structure.

In another series the test system is human tumor cell lines. The series can be described thus: Clonogenic assay against a panel of human tumor cells (Figures 1-4). The format is cell-based. The conditions noted are these: for cytotoxicity, overall statement: clonogenic assay, no concentration given. On the procedure:
Clonogenic Assay. The response of a variety of human tumor cell lines to bistriazenes was determined via the clonogenic assay described in Fiebig et al. (1987) European Journal of Cancer and Clinical Oncology 23: 937-948.
as §1
The tumors included those derived from colon cancer, three types of lung cancer, mammary cancer, ovarian cancer, two types of kidney cancer, a mesothelioma, a gastric cancer, and a sarcoma. These tumors represent some of the most important cancers for which current treatments are inadequate. For comparison, the assays of the various bistriazenes were compared to the response induced in the same tumors by DTIC, a drug employed in clinical practice.

Where [3] appears, read: LXFL 529, read-out: Test/Control (%) at Drug Concentration (µg/ml).
Where [4] appears, read: 10 ug/ml, panel of human tumor cell lines.
Setting [5] is: 100 ug/ml, panel of human tumor cell lines.
The mark [6] stands for this setting: 1.0 µg/ml, PRCL DU145X prostate carcinoma.
The mark [7] stands for this setting: 10.0 µg/ml, PRCL DU145X prostate carcinoma.
[8] abbreviates: 100.0 µg/ml, PRCL DU145X prostate carcinoma.
[9] abbreviates: 1.0 µg/ml, RXF 1220 renal carcinoma.
Setting [10] is: 10.0 µg/ml, RXF 1220 renal carcinoma.
Where [11] appears, read: 100.0 µg/ml, RXF 1220 renal carcinoma.
The mark [12] stands for this setting: 1.0 µg/ml, LXFL 529 large cell lung cancer line, read-out: Test/Control (%) at Drug Concentration (µg/ml).
Where [13] appears, read: 10.0 µg/ml, LXFL 529 large cell lung cancer line, read-out: Test/Control (%) at Drug Concentration (µg/ml).
Where [14] appears, read: 100.0 µg/ml, LXFL 529 large cell lung cancer line, read-out: Test/Control (%) at Drug Concentration (µg/ml).
[15] abbreviates: 1 ug/ml, panel of human tumor cell lines.

Take `O=P1(N(CCCl)CCCl)NC(OO)CCO1` (stereo not shown) [CYCM, 4-hydroperoxycyclophosphamide, reference compound]: in the series with PRCL DU145X, the activity at 1 µg/mL amounted to 108%, the activity at 10 µg/mL was 90% and the activity at 100 µg/mL came to 47%. In the series with RXF 1220, the activity at 1 µg/mL came out at 67%, the activity at 10 µg/mL amounted to 51% and the activity at 100 µg/mL is 9%. Moreover, in the series on LXFL 529 (setting [3]), the activity at 1 µg/mL came out at 115%, the activity at 10 µg/mL is 94% and the activity at 100 µg/mL stood at 19%.
`O=NN(CCCl)C(=O)NC1CCCCC1` [CCNU, 1-(2-chloroethyl)-3-cyclohexyl-1-nitrosourea, reference compound]: the “interstrand crosslinking of oligonucleotides” value (shortened to “interstrand crosslinking”) in series [1] (1.0 mM CCNU) is reported as “not as effective at forming crosslinks as the p-xylyl bistriazene derivative”.
On to `c1ccc(NN=NCCCCN=NNc2ccccn2)nc1` [compound 14, 1,4-Bis(2-pyridyltriazeno)butane], for which the solubility result in series [2] (common solvents) is “poorly soluble in common solvents such as halomethanes, acetone, methanol and water”; in series [2] (dimethylsulfoxide), “sparingly soluble”.
Take `c1ccc(NN=NCCN=NNc2ccccn2)nc1` [compound 15, 1,2-Bis(2-pyridyltriazeno)ethane]: the solubility result in series [2] (common solvents) is on record as “not soluble in most solvents, except dimethylsulfoxide”.
As to `CNN=NCCN=NNC` [bis(methyltriazeno)ethane, 1,2-Bis(methyltriazeno)ethane], the cytotoxic activity result is “only marginal, but significant, activity was seen in the large cell lung cancer and in the mammary cancer” in the series with human tumor cell lines (setting [4]); “Relatively little or no activity” in the series with human tumor cell lines (100 ug/ml, mesothelioma, gastric carcinoma, renal cancer RXF 423/17); “highly cytotoxic at 100 ug/ml to most of the tumor cell lines” in the series with human tumor cell lines (setting [5]).
As for `c1cncc(N=NNCCNN=Nc2cccnc2)c1` [Example 1a, bis(3-pyridyltriazeno)ethane], the activity at 1 µg/mL amounted to 84% with PRCL DU145X (setting [6]), 99% with RXF 1220 (setting [9]) and 51% in the series on LXFL 529 (setting [12]). In addition, the activity at 10 µg/mL in the series on PRCL DU145X (setting [7]) came out at 44%; in the series on RXF 1220 (setting [10]), 74%; with LXFL 529 (setting [13]), 0%. The activity at 100 µg/mL with PRCL DU145X (setting [8]) is 0%; with RXF 1220 (setting [11]), 4%; in the series on LXFL 529 (setting [14]), 0%. For the same compound, the “cytotoxicity, overall statement” value in the series with human tumor cell lines is recorded as “potently cytotoxic”.
For the compound `CNN=NCc1ccc(CN=NNC)cc1` [bis(methyltriazeno)-p-xylene, 1,4-Bis(methyltriazenomethyl)benzene], the “interstrand crosslinking” value in series [1] (10 mM bistriazene, listed as p-xylyl) is on record as “produce stable crosslinked species in oligonucleotides”; in series [1] (10 mM bistriazene, listed as p-xylyl bistriazene) it was “stably covalently crosslinked”. The cytotoxic activity entry in the series with human tumor cell lines (setting [15]) is on record as “Some activity was also evident at a dose of 1 ug/ml in about half the cell lines”; in the series on human tumor cell lines (setting [4]), “toxicity against approximately half of the cell lines examined”; in the series on human tumor cell lines (setting [5]), “highly toxic to all tumor cell lines”.
With `c1cncc(N=NNCCCCNN=Nc2cccnc2)c1` [Example 1b], the activity at 1 µg/mL in the series with PRCL DU145X (setting [6]) was 94%; in the series with RXF 1220 (setting [9]) it was 82%; in the series with LXFL 529 (setting [12]), 71%. Further, the activity at 10 µg/mL in the series on PRCL DU145X (setting [7]) was 62%; with RXF 1220 (setting [10]), 70%; in the series with LXFL 529 (setting [13]) it was 1%. The figures for the activity at 100 µg/mL with PRCL DU145X (setting [8]), in the series with RXF 1220 (setting [11]) and with LXFL 529 (setting [14]) were 4%, 8% and 1%, respectively. In addition, the “cytotoxicity, overall statement” value in the series with human tumor cell lines is recorded as “potently cytotoxic”.
For `CN(C)N=Nc1[nH]cnc1C(N)=O` [DTIC, 5-(3,3-dimethyltriazeno)imidazole-4-carboxamide, reference compound], the activity at 1 µg/mL came out at 70% with PRCL DU145X (setting [6]), 54% with RXF 1220 (setting [9]) and 63% with LXFL 529 (setting [12]). For the same compound, the activity at 10 µg/mL in the series with PRCL DU145X (setting [7]) was found to be 44%; with RXF 1220 (setting [10]), 44%; in the series on LXFL 529 (setting [13]) it was 35%. Further, the figures for the activity at 100 µg/mL in the series with PRCL DU145X (setting [8]), in the series with RXF 1220 (setting [11]) and in the series with LXFL 529 (setting [14]) were 43%, 24% and 8%, respectively. The cytotoxic activity entry in the series on human tumor cell lines (3 ug/ml, panel of human tumor cell lines) is “marginal activity against the gastric cancer”; in the series on human tumor cell lines (30 ug/ml, panel of human tumor cell lines), “activity against the gastric carcinoma GXF251/16 and the ovarian cancer OVXF899/9”; in the series on human tumor cell lines (300 ug/ml, panel of human tumor cell lines), “potently cytotoxic on all cell lines”.
As for `CNN=NC/C=C/CN=NNC` [1,4-bis(methyltriazeno)-trans-2-butene, 1,4-Bis(methyltriazeno)-trans-2-butene], the “interstrand crosslinking” value in series [1] (10 mM bistriazene) is “produce stable crosslinked species in oligonucleotides”. The cytotoxic activity entry in the series on human tumor cell lines (setting [15]) was “still significant activity against the lung cancer”; in the series with human tumor cell lines (setting [4]), “activity persisted at 10 ug/ml, especially for the large cell lung carcinoma LXFL529 and the renal cancer RXF423/17”; in the series on human tumor cell lines (setting [5]) it was “potent cytotoxic activity against all the tumors tested”. The “cytotoxicity, overall statement” value in the series with human tumor cell lines was “highly potent against several tumors, especially the large cell lung carcinoma”.
